± gives the uncertainty stated by the source.
Assay: TIMS collision cross section in N2 (TIMS CCS N2); higher = larger gas-phase ion size
Conditions: drift gas: N2 (99.4% N2, 0.6% O2), calibration: Stow et al. 2017 values for Agilent ESI-L Low Concentration Tune Mix, ionization: negative ESI
Protocol: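 Authentic plant natural product standards (10-50 ppm in 80% methanol) were analysed by UHPLC (BEH C18, 60 °C) coupled to a Bruker timsTOF Pro in negative ESI with N2 drift gas. TIMS collision cross sections were computed from mobility peak apices after calibration with Agilent Tune Mix using Stow et al. reference values. Values are the average of triplicate runs on different days, reported per annotated ion species (deprotonated ion, adducts, dimer, oxidized ion).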

Compound	TIMS collision cross section in N2 (ion species: [M-H]-) [Å²]	also measured
C[C@H]1[C@H](C)CC[C@]2(C(=O)O)CC[C@]3(C)C(=CC[C@@H]4[C@@]5(C)C[C@@H](O)[C@H](O)[C@@](C)(CO)[C@@H]5[C@H](O)C[C@]43C)[C@H]12 [Madecassic acid]	223.91 ± 0.25	–
CC(C)=CCC1=C(O)C(C(=O)CC(C)C)=C(O)C(CC=C(C)C)(CC=C(C)C)C1=O [Lupulone]	201.76 ± 0.7	–
CCCCCCCCCCCCCCCC(=O)O [Palmitic acid]	170.37 ± 0.16	–
O=C(/C=C/c1ccc(O)c(O)c1)O[C@@H]1C[C@](O)(C(=O)O)C[C@@H](O)[C@H]1O [Chlorogenic acid]	–	TIMS collision cross section in N2 (ion species: [M-3H]-): 187.02 ± 0.44 Å²
CC(C)=CCc1c(O)c(CC=C(C)C)c2c(c1O)C(=O)C[C@@H](c1ccc(O)cc1)O2 [6,8-diprenylnaringenin]	206.73 ± 0.66	–
CC(C)=CCc1c(O)cc(O)c(C(=O)/C=C/c2ccc(O)cc2)c1O [Desmethylxanthohumol]	183.45 ± 0.15	–
O=c1cc(-c2ccccc2)oc2cc(O)cc(O)c12 [Chrysin]	156.14 ± 0.1	TIMS collision cross section in N2 (ion species: [2M-H]-): 230.51 ± 0.25 Å²
O=c1cc(-c2ccccc2)oc2cc(O)c(O)c(O)c12 [Baicalein]	–	TIMS collision cross section in N2 (ion species: [M-3H]-): 158.42 ± 0.15 Å²
COc1ccc([C@@H]2CC(=O)c3c(O)cc(O[C@@H]4O[C@H](CO)[C@@H](O)[C@H](O)[C@H]4O[C@@H]4O[C@@H](C)[C@H](O)[C@@H](O)[C@H]4O)cc3O2)cc1O [Neohesperidin]	226.82 ± 0.1	–
COc1ccc(-c2cc(=O)c3c(O)cc(O[C@@H]4O[C@H](CO[C@@H]5O[C@@H](C)[C@H](O)[C@@H](O)[C@H]5O)[C@@H](O)[C@H](O)[C@H]4O)cc3o2)cc1O [Diosmin]	233.82 ± 0.23	TIMS collision cross section in N2 (ion species: [M-H+Na+HCO2H]-): 247.05 ± 0.28 Å²
O=c1cc(-c2ccc(O)cc2)oc2cc(O)c(O)c(O)c12 [Scutellarein]	159.52 ± 0.35	TIMS collision cross section in N2 (ion species: [M-3H]-): 156.37 ± 0.57 Å²
CC(C)=CCC(=O)C1(O)C(O)=C(C(=O)CC(C)C)C(=O)C1CC=C(C)C (configuration not stated) [Isohumulone]	187.14 ± 0.21	–
COc1ccc(-c2coc3cc(O[C@@H]4O[C@H](CO)[C@@H](O)[C@H](O)[C@H]4O)ccc3c2=O)cc1 [Ononin (Formononetin 7-O-glucoside)]	–	TIMS collision cross section in N2 (ion species: [M-H+HCO2H]-): 223.35 ± 0.14 Å²
CC(C)=CCC1C(=O)C(C(=O)CC(C)C)=C(O)C(O)(CC=C(C)C)C1=O (configuration not stated) [Humulone]	188.57 ± 0.35	–
COc1ccc(C=CC(=O)c2ccccc2O)cc1 [2'-Hydroxy-4-methoxychalcone]	164.38 ± 0.046	–
O=C(/C=C/c1ccc(O)cc1)OC[C@H]1O[C@@H](Oc2c(-c3ccc(O)cc3)oc3cc(O)cc(O)c3c2=O)[C@H](O)[C@@H](O)[C@@H]1O [Tiliroside]	217.09 ± 0.061	–
C[C@H]1[C@H](C)CC[C@]2(C(=O)O)CC[C@]3(C)C(=CC[C@@H]4[C@@]5(C)C[C@@H](O)[C@H](O)[C@@](C)(CO)[C@@H]5CC[C@]43C)[C@H]12 [Asiatic acid]	222.65 ± 0.35	–
C[C@@H]1O[C@@H](OC[C@H]2O[C@@H](Oc3c(-c4ccc(O)c(O)c4)oc4cc(O)cc(O)c4c3=O)[C@H](O)[C@@H](O)[C@@H]2O)[C@H](O)[C@H](O)[C@H]1O [Rutin]	231.06 ± 0.2	TIMS collision cross section in N2 (ion species: [M-3H]-): 219.55 ± 0.41 Å²
Oc1cc(O)c2c(c1)OC(c1ccc(O)c(O)c1)C(O)C2 (single isomer, unassigned; (+)) [(+)-Catechin]	157.43 ± 0.095	–
C[C@@H]1O[C@@H](Oc2c(-c3ccc(O)c(O)c3)oc3cc(O)cc(O)c3c2=O)[C@H](O)[C@H](O)[C@H]1O [Quercitrin]	195.84 ± 0.038	TIMS collision cross section in N2 (ion species: [M-H+Na+HCO2H]-): 205.52 ± 0.42 Å²
O=c1cc(-c2ccccc2)oc2cccc(O)c12 [5-Hydroxyflavone]	156 ± 0.14	TIMS collision cross section in N2 (ion species: [M-H+Na+HCO2H]-): 173.98 ± 0.31 Å²
O=c1cc(-c2cc(O)c(O)c(O)c2)oc2cc(O)ccc12 [7,3',4',5'-Tetrahydroxyflavone]	161.92 ± 0.042	–
COc1cc(O)c2c(=O)cc(-c3cc(OC)c(OC)c(OC)c3)oc2c1 [Corymbosin]	190.83 ± 0.34	–
COc1cc2oc(-c3ccc(O)cc3O)c(CC=C(C)C)c(=O)c2c(O)c1/C=C/C(C)C [Artocarpin]	218.58 ± 0.23	TIMS collision cross section in N2 (ion species: [M-H+Na+HCO2H]-): 229.53 ± 0.64 Å²

Compound	TIMS collision cross section in N2 (ion species: [M-H]-) [Å²]	also measured
COc1cc([C@@H]2CC(=O)c3c(O)cc(O)cc3O2)ccc1O [Homoeriodictyol]	168.62 ± 0.075	TIMS collision cross section in N2 (ion species: [M-H+Na+HCO2H]-): 188.05 ± 0.04 Å²
O=c1c(-c2ccc(O)cc2)coc2cc(O)cc(O)c12 [Genistein]	159.89 ± 0.26	TIMS collision cross section in N2 (ion species: [2M-H]-): 249.93 ± 0.16 Å²
C[C@@H]1O[C@@H](O[C@H]2[C@H](Oc3cc(O)c4c(c3)O[C@H](c3ccc(O)c(O)c3)CC4=O)O[C@H](CO)[C@@H](O)[C@@H]2O)[C@H](O)[C@H](O)[C@H]1O [eriodictyol-7-neohesperidoside]	222.66 ± 0.095	TIMS collision cross section in N2 (ion species: [M-3H]-): 222.52 ± 0.16 Å²; TIMS collision cross section in N2 (ion species: [M-H+Na+HCO2H]-): 234.56 ± 0.42 Å²
O=C(CCc1ccc(O)c(O)c1)c1c(O)cc(O)c([C@@H]2O[C@H](CO)[C@@H](O)[C@H](O)[C@H]2O)c1O [Aspalathin]	194.21 ± 0.22	TIMS collision cross section in N2 (ion species: [2M-H]-): 274.03 ± 0.72 Å²; TIMS collision cross section in N2 (ion species: [M-3H]-): 195.17 ± 0.1 Å²
COc1ccc(-c2oc3cc(OC)ccc3c(=O)c2O)cc1 [7,4'-Dimethoxy-3-hydroxyflavone]	–	TIMS collision cross section in N2 (ion species: [M-H+Na+HCO2H]-): 193.67 ± 0.15 Å²
O=C(/C=C/c1ccccc1)c1ccc(O)cc1O [2',4'-Dihydroxychalcone]	158.57 ± 0.14	–
Oc1cc(O)c2c(c1)O[C@@H](c1ccc(O)c(O)c1)[C@H](O)C2 [Catechin]	156.67 ± 0.19	–
O=C1c2c(O)cc(O)cc2O[C@H](c2ccc(O)cc2)[C@H]1O [Dihydrokaempferol]	164.03 ± 0.16	TIMS collision cross section in N2 (ion species: [2M-H]-): 248.74 ± 0.038 Å²; TIMS collision cross section in N2 (ion species: [M-H+Na+HCO2H]-): 186.44 ± 0.2 Å²
COc1cc(-c2cc(=O)c3c(O)c(OC)c(O)cc3o2)cc(OC)c1O [5,7,4'-trihydroxy-6,3',5'-trimethoxyflavone]	183.59 ± 0.17	TIMS collision cross section in N2 (ion species: [M-H+Na+HCO2H]-): 202.32 ± 0.32 Å²
COc1ccc(C2CC(=O)c3c(O)cc(OC)cc3O2)cc1 (configuration not stated) [7,4'-Dimethoxy-5-hydroxyflavanone]	175.55 ± 0.29	TIMS collision cross section in N2 (ion species: [M-H+Na+HCO2H]-): 194.46 ± 0.47 Å²
COc1ccc(C(=O)/C=C/c2ccccc2)c(O)c1 [2'-Hydroxy-4'-methoxychalcone]	163.91 ± 0.055	–
COc1ccc(-c2cc(=O)c3c(O)cc(O)cc3o2)cc1O [Diosmetin]	171.28 ± 0.2	–
O=C1C[C@@H](c2ccc(O)c(O)c2)Oc2cc(O)cc(O)c21 [Eriodictyol]	165.97 ± 0.11	–
CC(C)=CCc1c(O)cc2c(c1O)C(=O)C[C@@H](c1ccc(O)cc1)O2 [6-prenylnaringenin]	183.64 ± 0.61	TIMS collision cross section in N2 (ion species: [2M-H]-): 235.03 ± 0.42 Å²
O=C(N[C@@H](CSCc1ccccc1)C(=O)O)OCc1ccccc1 [S-Benzyl-N-carbobenzyloxy-L-cysteine]	264.84 ± 0.64	–
COc1cc(C=CC(=O)O)cc(OC)c1O [Sinapic acid]	148.27 ± 0.07	–
COc1cc(/C=C/C(=O)O)cc(O)c1O [5-Hydroxyferulic acid]	141.26 ± 0.044	–
CCCCCCCCCCCCCC(=O)O [Myristic acid]	162.69 ± 0.1	–
CC1(C)CCC2(C(=O)OC3OC(CO)C(O)C(O)C3O)CCC3(C)C(=CCC4C5(C)CC(O)C(OC6OC(CO)C(O)C(O)C6O)C(C)(C(=O)O)C5CCC43C)C2C1 (configuration not stated) [3-Glc, 28-Glc medicagenic acid]	300.86 ± 0.71	–
O=c1c(O[C@@H]2O[C@H](CO)[C@@H](O)[C@H](O)[C@H]2O)c(-c2ccc(O)cc2)oc2cc(O)cc(O)c12 [kaempferol-3-O-glucoside]	200.44 ± 0.33	TIMS collision cross section in N2 (ion species: [2M-H]-): 279.93 ± 1.2 Å²; TIMS collision cross section in N2 (ion species: [M-H+Na+HCO2H]-): 222.09 ± 0.65 Å²
COc1cc([C@@H]2Oc3c(O)cc([C@H]4Oc5cc(O)cc(O)c5C(=O)[C@@H]4O)cc3[C@H]2CO)ccc1O [silychristin]	201.63 ± 0.24	–
COc1ccc(C2CC(=O)c3c(O)cccc3O2)cc1OC (configuration not stated) [5-Hydroxy-3',4'-dimethoxyflavanone]	174.21 ± 0.21	TIMS collision cross section in N2 (ion species: [M-H+Na+HCO2H]-): 187.65 ± 0.61 Å²
O=c1oc2cc(O)ccc2c2oc3cc(O)ccc3c12 [Coumestrol]	155.75 ± 0.042	TIMS collision cross section in N2 (ion species: [2M-H]-): 245.05 ± 0.43 Å²
O=c1c(-c2ccc(O)c(O)c2)coc2cc(O)ccc12 [3',4',7-Trihydroxyisoflavone]	161.78 ± 0.026	TIMS collision cross section in N2 (ion species: [2M-H]-): 217.7 ± 0.21 Å²; TIMS collision cross section in N2 (ion species: [M-3H]-): 155.92 ± 0.067 Å²

From the supplement of paper PMC7023306
